Data as given in US4616010A, “Imidazodiazepine derivatives” (Hoffmann-La Roche Inc., priority 1985, dated 1986).

What was measured:
[1] = test system: spasmodic seizures caused by pentetrazole; experiment: antipentetrazole test (anticonvulsant activity); format: in vivo; conditions: Rattus norvegicus, po; female rats 60-80 g; compound orally 30 min before pentetrazole 120 mg/kg i.p.; dose protecting 50%, Probit method
Experimental: The central properties of the compounds of formula I in accordance with the invention can be determined, for example, in the antipentetrazole test described hereinafter, which is generally recognized for recording anticonvulsant properties.
In this animal experiment, the compound under investigation is administered orally to female rats weighing 60-80 g and 30 minutes later there are administered i.p. 120 mg/kg of pentetrazole, which causes emprosthotonus and tonic stretchings of the fore and/or hind limbs in unprotected experimental animals 1-4 minutes after the injection. Ten experimental animals are used per dosage of test substance. After counting the protected experimental animals, the ED50 is determined according to the Probit method. The ED50 is that dosage which protects 50% of the experimental animals from the spasmodic seizures caused by pentetrazole.

[2] = acute toxicity, single oral administration to mice; conditions: mouse, in vivo
Source text: The results obtained with representative members of the class of compounds defined by formula I in the experiments described previously are compiled in the following Table. Moreover, the Table contains data concerning the acute toxicity of some of these compounds (LD50 in mg/kg in the case of single oral administration to mice).

[3] = target: central benzodiazepine receptors; experiment: inhibition of the binding of tritiated diazepam at the specific benzodiazepine receptors in the cerebral cortex
Source text: The affinity of compounds of formula I to the central benzodiazepine receptors has been determined according to the method described in Life Science 20, 2101-2110 (1977) and Science 198, 849-851 (1977). According to this method, the inhibition of the binding of tritiated diazepam at the specific benzodiazepine receptors in the cerebral cortex by the respective test substances is ascertained. The IC50 ("50% inhibiting concentration") is that concentration of the respective test substance which brings about a 50 percent inhibition of the specific binding of the tritiated diazepam at the specific benzodiazepine receptors in the cerebral cortex.

O=C1c2c(Cl)cccc2-n2cnc(-c3cccc(Cl)c3)c2[C@@H]2CCCN12 [A]
ED50 [1]: 2.1 mg/kg
LD50 [2]: 2500 to 5000 mg/kg
IC50 [3]: 0.0042 µM

O=C1c2c(Cl)cccc2-n2cnc(-c3cccc(C(F)(F)F)c3)c2[C@@H]2CCCN12 [B, (S)-8-chloro-11,12,13,13a-tetrahydro-1-(α,α,α-trifluoro-m-tolyl)-9H-imidazo[1,5-a]pyrrolo[2,1-c][1,4]benzodiazepin-9-one]
ED50 [1]: 4 mg/kg
LD50 [2]: 2500 to 5000 mg/kg
IC50 [3]: 0.04 µM
